Patent publication US20110275583A1, “Synergistic active compound combinations” (priority 2010, published 2011)
Like-named read-outs stand apart in the source and are kept apart here.

Assays:
Assay type in all cases: in vivo
[1] = tested on: larvae of the mustard beetle (Phaedon cochleariae); test: Phaedon cochleariae larvae test (sprayed cabbage leaves); settings: single active compound
Text: (§1) The expected action for a given combination of two active compounds can be calculated as follows, using the formula of S. R. Colby, Weeds 15 (1967), 20-22: • If • X is the kill rate, expressed as % of the untreated control, when employing active compound A at an application rate of m g/ha or in a concentration of in ppm, • Y is the kill rate, expressed as % of the untreated control, when employing active compound B at an application rate of n g/ha or in a concentration of n ppm and • E is the kill rate, expressed as % of the untreated control, when employing active compounds A and B at application rates of m and n g/ha or in a concentration of m and n ppm, • then
(§2) If the actual kill rate exceeds the calculated value, the action of the combination is superadditive, i.e. a synergistic effect is present. In this case, the actually observed kill rate must exceed the value calculated using the above formula for the expected kill rate (E).
(§3) Solvent: 78 parts by weight of acetone • • 1.5 parts by weight of dimethylformamide
(§4) Emulsifier: 0.5 part by weight of alkylaryl polyglycol ether
(§5) To produce a suitable preparation of active compound, 1 part by weight of active compound is mixed with the stated amounts of solvent and emulsifier, and the concentrate is diluted with emulsifier-containing water to the desired concentration.
Cabbage leaves (Brassica oleracea) are treated by spraying with the active compound preparation of the desired concentration and populated with larvae of the mustard beetle (Phaedon cochleariae) while the leaves are still moist.
After the desired period of time, the kill in % is determined. 100% means that all beetle larvae have been killed; 0% means that none of the beetle larvae have been killed. The kill rates determined are entered into Colby's formula.

[2] = tested on: green peach aphid (Myzus persicae); test: Myzus persicae test (spray treatment of infested cabbage leaves)
Text: as §1, §2, §3, §4, §5
Cabbage leaves (Brassica oleracea) which are heavily infested by the green peach aphid (Myzus persicae) are treated by spraying with the active compound preparation of the desired concentration.
After the desired period of time, the kill in % is determined. 100% means that all of the aphids have been killed; 0% means that none of the aphids have been killed. The kill rates determined are entered into Colby's formula.

[3] = tested on: greenhouse red spider mite (Tetranychus urticae); test: Tetranychus test, OP-resistant/spray treatment (bean leaf discs); settings: single active compound
Text: as §1, §2, §3, §4, §5
Discs of bean leaves (Phaseolus vulgaris) which are infested by all stages of the greenhouse red spider mite (Tetranychus urticae) are sprayed with an active compound preparation of the desired concentration.
After the desired period of time, the effect in % is determined. 100% means that all of the spider mites have been killed; 0% means that none of the spider mites have been killed.

[4] = tested on: armyworm (Spodoptera frugiperda); test: Spodoptera frugiperda larvae test (sprayed cabbage leaves); settings: Spodoptera frugiperda, single active compound
Text: as §1, §2, §3, §4, §5
Cabbage leaves (Brassica oleracea) are treated by being sprayed with the preparation of active compound of the desired concentration and are populated with the armyworm (Spodoptera frugiperda) while the leaves are still moist.
After the desired period of time, the kill in % is determined. 100% means that all caterpillars have been killed; 0% means that none of the caterpillars have been killed. The kill rates determined are entered, into Colby's formula.

[5] = Phaedon cochleariae, 144 h, 6 d, read-out: Kill in % after 6 d
[6] = Myzus persicae, 24 h, after 1 d, read-out: Kill in % after 1d
[7] = Tetranychus urticae, foliar, 48 h, 2 d, read-out: Kill in % after 2 d
[8] = Tetranychus urticae, foliar, 48 h, 4 g/ha, 2 d, read-out: Kill in % after 2 d
[9] = Phaedon cochleariae, 144 h, 20 g/ha, 6 d, read-out: Kill in % after 6 d
[10] = Myzus persicae, 24 h, 0.16 g/ha, after 1 d, read-out: Kill in % after 1d
[11] = Myzus persicae, 144 h, 0.16 g/ha, single active compound, 6 d, read-out: Kill in % after 6 d
[12] = 48 h, 2 d, read-out: Kill in % after 2 d
[13] = Tetranychus urticae, foliar, 144 h, 4 g/ha, 6 d, read-out: Kill in % after 6 d
[14] = 144 h, 6 d, read-out: Kill in % after 6 d
[15] = Tetranychus urticae, foliar, 144 h, 20 g/ha, 6 d, read-out: Kill in % after 6 d
[16] = Myzus persicae, 144 h, single active compound, 6 d, read-out: Kill in % after 6 d
[17] = Phaedon cochleariae, 48 h, 20 g/ha, 2 d, read-out: Kill in % after 2 d
[18] = Tetranychus urticae, foliar, 144 h, 6 d, read-out: Kill in % after 6 d

## CCc1nn(C)c(C(=O)NCc2ccc(C(C)(C)C)cc2)c1Cl [tebufenpyrad, Tebufenpyrad]
[1]; [5]
  pest or weed control at 100 g/ha: 0%
[2]; [6]
  pest or weed control at 20 g/ha: 0%
[3]; [7]
  pest or weed control at 0.8 g/ha: 0%
[3]; [8]
  pest or weed control at 4 g/ha: 70%

## CN1COCN(Cc2cnc(Cl)s2)/C1=N/[N+](=O)[O-] [thiamethoxam]
[1]; [9]
  pest or weed control at 20 g/ha: 50%
[2]; [10]
  pest or weed control at 0.16 g/ha: 0%
[2]; [11]
  pest or weed control at 0.16 g/ha: 0%

## spinosad
[1]; 4 g/ha, 2 d
  Kill in % after 2 d: 33%
[3]; 20 g/ha, 6 d
  Kill in % after 6 d: 80%

## spinetoram
[1]; 4 g/ha, 2 d
  Kill in % after 2 d: 50%

## CCOCn1c(-c2ccc(Cl)cc2)c(C#N)c(Br)c1C(F)(F)F [chlorfenapyr]
[4]; [12]
  pest or weed control at 100 g/ha: 50%

## CC(C)c1cc(Oc2ccccc2)cc(C(C)C)c1NC(=S)NC(C)(C)C [diafenthiuron]
[2]; [6]
  pest or weed control at 20 g/ha: 0%
[3]; [8]
  pest or weed control at 4 g/ha: 0%

## CC(c1ccc(C(F)(F)F)nc1)S(C)(=O)=NC#N (stereo not shown) [sulfoxaflor]
[3]; [13]
  pest or weed control at 4 g/ha: 0%

## O=C(NC(=O)c1c(F)cccc1F)Nc1cc(Cl)c(OC(F)(F)C(F)C(F)(F)F)cc1Cl (stereo not shown) [lufenuron]
[1]; [5]
  pest or weed control at 100 g/ha: 33%
[4]; [14]
  pest or weed control at 4 g/ha: 0%

## CC1(C)C(C=C(Cl)Cl)C1C(=O)OC(C#N)c1cccc(Oc2ccccc2)c1 (stereo not shown) [cypermethrin]
[1]; Phaedon cochleariae, 48 h, 4 g/ha, 2 d, read-out: Kill in % after 2 d
  pest or weed control at 4 g/ha: 17%
[2]; [6]
  pest or weed control at 0.8 g/ha: 70%
[3]; [15]
  pest or weed control at 20 g/ha: 0%

## Cc1c(F)c(F)c(COC(=O)[C@@H]2[C@H](/C=C(\Cl)C(F)(F)F)C2(C)C)c(F)c1F (racemic) [tefluthrin]
[1]; [9]
  pest or weed control at 20 g/ha: 33%
[2]; [6]
  pest or weed control at 4 g/ha: 70%

## COC(=O)N(C(=O)N1COC2(C(=O)OC)Cc3cc(Cl)ccc3C2=N1)c1ccc(OC(F)(F)F)cc1 (stereo not shown) [indoxacarb]
[1]; Phaedon cochleariae, 144 h, 0.8 g/ha, 6 d, read-out: Kill in % after 6 d
  pest or weed control at 0.8 g/ha: 0%
[4]; [12]
  pest or weed control at 100 g/ha: 50%

## CC(=O)N1C(=O)N(NCc2cccnc2)Cc2cc(C(F)(C(F)(F)F)C(F)(F)F)ccc21 [pyrifluquinazone]
[3]; Tetranychus urticae, foliar, 144 h, 100 g/ha, 6 d, read-out: Kill in % after 6 d
  pest or weed control at 100 g/ha: 0%

## CC(C)N1C(=O)N(c2ccccc2)CS/C1=N\C(C)(C)C [buprofezin]
[2]; Myzus persicae, 144 h, 500 g/ha, single active compound, 6 d, read-out: Kill in % after 6 d
  pest or weed control at 500 g/ha: 0%

## CC1(C)C(/C=C/C(=O)OC(C(F)(F)F)C(F)(F)F)C1C(=O)OC(C#N)c1cccc(Oc2ccccc2)c1 (stereo not shown) [acrinathrin]
[4]; 144 h, 0.8 g/ha, 6 d, read-out: Kill in % after 6 d
  pest or weed control at 0.8 g/ha: 0%

## CS/C(C)=N\OC(=O)N(C)SN(C)C(=O)O/N=C(\C)SC [thiodicarb]
[2]; Myzus persicae, 24 h, 100 g/ha, after 1 d, read-out: Kill in % after 1d
  pest or weed control at 100 g/ha: 0%

## O=C(NC(=O)c1c(F)cccc1F)Nc1ccc(OC(F)(F)C(F)OC(F)(F)F)c(Cl)c1 (stereo not shown) [novaluron]
[1]; [5]
  pest or weed control at 100 g/ha: 0%

## N#Cc1ccc(CC(=NNC(=O)Nc2ccc(OC(F)(F)F)cc2)c2cccc(C(F)(F)F)c2)cc1 (mixture of isomers) [metaflumizone]
[4]; [12]
  pest or weed control at 100 g/ha: 0%
[2]; [16]
  pest or weed control at 4 g/ha: 0%

## CC1(C)[C@H](C=C(Cl)Cl)[C@H]1C(=O)OCc1c(F)c(F)cc(F)c1F [transfluthrin]
[4]; [14]
  pest or weed control at 4 g/ha: 33%

## CN/C(=N\[N+](=O)[O-])NCC1CCOC1 (stereo not shown) [dinotefuran]
[1]; [17]
  pest or weed control at 20 g/ha: 17%
[2]; [6]
  pest or weed control at 4 g/ha: 0%
[2]; [16]
  pest or weed control at 4 g/ha: 0%

## CC[S+]([O-])c1c(C#N)nn(-c2c(Cl)cc(C(F)(F)F)cc2Cl)c1N (stereo not shown) [ethiprole]
[1]; Phaedon cochleariae, 144 h, 0.16 g/ha, 6 d, read-out: Kill in % after 6 d
  pest or weed control at 0.16 g/ha: 0%
[2]; [6]
  pest or weed control at 20 g/ha: 0%
[3]; [15]
  pest or weed control at 20 g/ha: 0%

## Cc1cc(C)c(C2=C(OC(=O)CC(C)(C)C)C3(CCCC3)OC2=O)c(C)c1 [spiromesifen]
[2]; [16]
  pest or weed control at 0.8 g/ha: 0%
[3]; Tetranychus urticae, foliar, 48 h, 20 g/ha, 2 d, read-out: Kill in % after 2 d
  pest or weed control at 20 g/ha: 0%

## Cc1cc(F)c(-n2nc(C(F)(F)F)nc2N)cc1[S+]([O-])CC(F)(F)F (stereo not shown) [1-{2-fluoro-4-methyl-5-[(2,2,2-trifluoroethyl)sulphinyl]phenyl}-3-(trifluoromethyl)-1H-1,2,4-triazole-5-amine]
[1]; [5]
  pest or weed control at 100 g/ha: 0%
[3]; [18]
  pest or weed control at 0.8 g/ha: 0%
[3]; [13]
  pest or weed control at 4 g/ha: 80%

## Cc1nn(C)c(Oc2ccccc2)c1C=NOCc1ccc(C(=O)OC(C)(C)C)cc1 [fenpyroximate, Fenpyroximate]
[1]; [17]
  pest or weed control at 20 g/ha: 0%

## CCOC(=O)OC1=C(c2cc(C)ccc2C)C(=O)N[C@]12CC[C@@H](OC)CC2 [spirotetramat]
[2]; [11]
  pest or weed control at 0.16 g/ha: 0%

## O=[N+]([O-])/N=C1\NCCN1Cc1ccc(Cl)nc1 [imidacloprid]
[1]; [9]
  pest or weed control at 20 g/ha: 33%
[2]; [10]
  pest or weed control at 0.16 g/ha: 0%

## abamectin
[1]; 0.16 g/ha, 6 d
  Kill in % after 6 d: 0%
[2]; 0.16 g/ha, after 1 d
  Kill in % after 1d: 0%
[2]; 0.16 g/ha, single active compound, 6 d
  Kill in % after 6 d: 0%
[3]; 4 g/ha, 2 d
  Kill in % after 2 d: 0%

## O=C1C=C(N(Cc2ccc(Cl)nc2)CC(F)F)CO1 [4-{[(6-chloropyrid-3-yl)methyl](2,2-difluoroethyl)amino}furan-2(5H)-one]
[2]; [6]
  pest or weed control at 4 g/ha: 70%

## CCC(C)(C)C(=O)OC1=C(c2ccc(Cl)cc2Cl)C(=O)OC12CCCCC2 [spirodiclofen]
[2]; [16]
  pest or weed control at 4 g/ha: 0%
[3]; [18]
  pest or weed control at 0.8 g/ha: 20%

## O=C(NC(=O)c1ccccc1Cl)Nc1ccc(OC(F)(F)F)cc1 [triflumuron]
[4]; [14]
  pest or weed control at 4 g/ha: 17%

## O=C(NC(=O)c1c(F)cccc1F)Nc1ccc(Oc2ccc(C(F)(F)F)cc2Cl)cc1F [flufenoxuron]
[4]; [14]
  pest or weed control at 20 g/ha: 33%

## milbemectin
[1]; 20 g/ha, 6 d
  Kill in % after 6 d: 0%

## Cc1cc(C(F)(C(F)(F)F)C(F)(F)F)ccc1NC(=O)c1cccc(I)c1C(=O)NC(C)(C)CS(C)(=O)=O [flubendiamide, Flubendiamide]
[4]; [14]
  pest or weed control at 4 g/ha: 33%
[2]; [16]
  pest or weed control at 0.8 g/ha: 0%

## COc1cccc(C(=O)NN(C(=O)c2cc(C)cc(C)c2)C(C)(C)C)c1C [methoxyfenozide]
[4]; [12]
  pest or weed control at 20 g/ha: 33%

## CC1(C)[C@H](/C=C(\Cl)C(F)(F)F)[C@@H]1C(=O)O[C@H](C#N)c1cccc(Oc2ccccc2)c1 [gamma-cyhalothrin]
[2]; Myzus persicae, 24 h, 0.032 g/ha, after 1 d, read-out: Kill in % after 1d
  pest or weed control at 0.032 g/ha: 0%
[3]; [7]
  pest or weed control at 0.8 g/ha: 0%

## N#C/N=C1\SCCN1Cc1ccc(Cl)nc1 [thiacloprid]
[1]; [9]
  pest or weed control at 20 g/ha: 0%
[2]; [10]
  pest or weed control at 0.16 g/ha: 0%
[2]; [11]
  pest or weed control at 0.16 g/ha: 0%

## CNC(=O)Oc1cccc2c1OC(C)(C)C2 [carbofuran]
[4]; [14]
  pest or weed control at 4 g/ha: 0%

## C/C(=N\C#N)N(C)Cc1ccc(Cl)nc1 [acetamiprid]
[1]; [9]
  pest or weed control at 20 g/ha: 0%
[2]; [11]
  pest or weed control at 0.16 g/ha: 0%
